Six molecules from ChEMBL document CHEMBL1201862, “PubChem BioAssay data set” (2004) can be followed below.

Test systems include CAKI-1; LOX IMVI; HCT-116; T47D; ACHN; MCF7; SR; NCI-H23; OVCAR-8; SNB-75; CCRF-CEM; MOLT-4; A549; UACC-62; Malme-3M; SK-OV-3; SK-MEL-2; NCI-H522; KM12; MDA-MB-231.
What all share (assay): NCI-60 cell line screen, 48 h

Structures are written as SMILES.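 Step 1: Grow cells in 96-well plates. Step 2: Expose to compound for 48 hours at 5 concentrations. Step 3: Interpolate endpoints linearly; if unreached, use highest concentration. The concentration for 50% growth inhibition is given as GI50.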 Calls of active or inactive are those of the source. Rule as the data show it: active = GI50 up to about 1.1 µM and inactive = higher. Some results are limits rather than exact numbers.

Consider `COC(=O)c1ccc(Nc2nc3[nH]cnc3c(=O)[nH]2)cc1`, for which the GI50 in the test on CAKI-1 was > 100 µM (inactive); in the test on LOX IMVI, 95.5 µM (inactive); with HCT-116 it was > 100 µM (inactive); in the test with T47D it was 69 µM (inactive); in the test with ACHN, > 100 µM (inactive); with MCF7 it was > 100 µM (inactive). Further, the GI50 in the test on SR is 65.9 µM (inactive); with NCI-H23, > 100 µM (inactive); in the test on OVCAR-8, > 100 µM (inactive); in the test on SNB-75, > 100 µM (inactive); with CCRF-CEM it was > 100 µM (inactive); in the test on MOLT-4, 87.1 µM (inactive). Further, the GI50 was > 100 µM (inactive) in the test on A549; > 100 µM (inactive) in the test on UACC-62; > 100 µM (inactive) with Malme-3M; 89.3 µM (inactive) in the test with SK-OV-3; > 100 µM (inactive) in the test on SK-MEL-2; > 100 µM (inactive) in the test with NCI-H522. Besides, the GI50 in the test with KM12 and in the test with MDA-MB-231 was > 100 µM (inactive) each time.

For `O=C(CN(c1ccc(S(=O)(=O)O)cc1)c1ccc(S(=O)(=O)O)cc1)Nn1cnc2ccc(S(=O)(=O)N(c3ccc(S(=O)(=O)O)cc3)c3ccc(S(=O)(=O)O)cc3)cc2c1=O`, the GI50 in the test on CAKI-1, with LOX IMVI, with HCT-116, in the test on T47D, in the test with ACHN and in the test with MCF7 was > 100 µM (inactive) throughout. Moreover, the GI50 in the test with SR, in the test on NCI-H23, in the test on OVCAR-8, in the test on SNB-75, with CCRF-CEM and in the test on MOLT-4 was > 100 µM (inactive) in each case. Moreover, the GI50 in the test with A549, in the test with UACC-62, in the test with Malme-3M, with SK-OV-3, with SK-MEL-2 and in the test with NCI-H522 was > 100 µM (inactive) throughout. Also, the GI50 with KM12 and in the test with MDA-MB-231 was > 100 µM (inactive) in each case.

`COC(=O)C(/C(=N/NC(=O)c1ccncc1)C(=O)Nc1ccccc1OC)c1nc2ccc(Cl)cc2nc1O` (stereo not given): the GI50 in the test with CAKI-1 was > 100 µM (inactive); with LOX IMVI, > 100 µM (inactive); in the test with HCT-116, 83.4 µM (inactive); with T47D, > 100 µM (inactive); in the test with ACHN, > 100 µM (inactive); in the test on MCF7 it was > 100 µM (inactive). The GI50 is 0.78 µM (active) in the test on SR; > 100 µM (inactive) in the test with NCI-H23; > 100 µM (inactive) in the test with OVCAR-8; > 100 µM (inactive) in the test with SNB-75; > 10 µM (inactive) in the test with CCRF-CEM; > 100 µM (inactive) in the test with MOLT-4. The GI50 in the test with A549, in the test with UACC-62, in the test on Malme-3M, with SK-OV-3, with SK-MEL-2 and with NCI-H522 was > 100 µM (inactive) in each case. Moreover, the GI50 was 92 µM (inactive) in the test with KM12 and > 100 µM (inactive) in the test on MDA-MB-231.

Regarding `CC1C2Cc3ccc(O)cc3C1(C)CCN2C` (stereo not given), the GI50 in the test with CAKI-1, with LOX IMVI, with HCT-116, in the test with T47D, in the test with ACHN and in the test on MCF7 was > 100 µM (inactive) in each case. In addition, the GI50 in the test on SR is > 100 µM (inactive); with NCI-H23 it was > 100 µM (inactive); in the test on OVCAR-8, > 100 µM (inactive); in the test with SNB-75, 86.7 µM (inactive); in the test on CCRF-CEM, > 100 µM (inactive); with MOLT-4, > 100 µM (inactive). Besides, the GI50 in the test with A549, in the test with UACC-62, in the test on Malme-3M, in the test on SK-OV-3, with SK-MEL-2 and with NCI-H522 was > 100 µM (inactive) in each case. Besides, the GI50 in the test on KM12 and in the test with MDA-MB-231 was > 100 µM (inactive) each time.

As for `CC1(C)COC2=C(C1)C(=O)c1ccccc1C2=O`, the GI50 in the test with CAKI-1 is 2.23 µM (inactive); in the test on LOX IMVI it was 1.88 µM (inactive); with HCT-116 it was 0.449 µM (active); with T47D, 0.558 µM (active); in the test with ACHN, 1.55 µM (inactive); in the test on MCF7, 1.21 µM (inactive). Also, the GI50 with SR was 2.66 µM (inactive); with NCI-H23, 1.54 µM (inactive); with OVCAR-8, 0.493 µM (active); in the test with SNB-75, 1.63 µM (inactive); with CCRF-CEM, 2.37 µM (inactive); in the test on MOLT-4, 1.5 µM (inactive). The GI50 is 2.26 µM (inactive) in the test with A549; 1.09 µM (active) in the test on UACC-62; 1.88 µM (inactive) in the test on Malme-3M; 1.88 µM (inactive) in the test with SK-OV-3; 1.91 µM (inactive) in the test with SK-MEL-2; 1.85 µM (inactive) with NCI-H522. The GI50 in the test with KM12 was 1.76 µM (inactive); with MDA-MB-231, 2.04 µM (inactive).

Turning to `C[C@@H]1CC[C@@]2(C)[C@H](C)/C(=C\COC(=O)/C=C/c3ccc(O)c(O)c3)CC[C@@]12C` [NAVICULYL CAFFEATE], the GI50 in the test on CAKI-1 is 4.58 µM (inactive); in the test on LOX IMVI it was 6.01 µM (inactive); in the test with HCT-116 it was 2.78 µM (inactive); in the test on T47D, 12.6 µM (inactive); with ACHN it was 4.19 µM (inactive); in the test on MCF7, 2.83 µM (inactive). For the same molecule, the GI50 with SR is 2.41 µM (inactive); in the test with NCI-H23, 9.23 µM (inactive); with OVCAR-8 it was 9.42 µM (inactive); with SNB-75, 11.9 µM (inactive); in the test with CCRF-CEM, 1.11 µM (active); with MOLT-4, 2.26 µM (inactive). Moreover, the GI50 with A549 is 7.62 µM (inactive); in the test with UACC-62, 10.3 µM (inactive); with Malme-3M, 14 µM (inactive); with SK-OV-3 it was 12.4 µM (inactive); with SK-MEL-2, 12.6 µM (inactive); in the test with NCI-H522, 1.28 µM (inactive). In addition, the GI50 in the test with KM12 was 3.95 µM (inactive); with MDA-MB-231, 7.83 µM (inactive).
